# Source: the METLIN SMRT retention time set (Domingo-Almenara et al. 2019)
# Experiment: gradient 5% acetonitrile 3 min, to 50% in 2 min, to 85% in 15 min, held 3 min, 100 µL/min
# Conditions: column: Zorbax Extend-C18 2.1 x 50 mm; eluents: water / acetonitrile, 0.1% formic acid
# Method in brief: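 Data were gathered over 3 months by HPLC coupled to a quadrupole time-of-flight mass spectrometer, operated in positive and negative ionization mode. Mixtures of ~100 pure standards ran on a Zorbax Extend-C18 column (2.1 × 50 mm, 1.8 μm) at 100 μL/min, with water and acetonitrile each containing 0.1% formic acid and dead and dwell volumes of 40 μL and 900 μL. Retention time was read from adduct peaks picked by computer and checked manually.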
row,RP-LC retention time,Structure (SMILES)
1,1080 s,CC1CCN(S(=O)(=O)c2cc(C(=O)NCc3ccc(Br)cc3)n(C)c2)CC1
2,1080 s,COc1cccc(Cn2c(=O)c3sccc3n(Cc3nc(-c4cccc(OC)c4)no3)c2=O)c1
3,856 s,Cc1ccc(CNC(=O)C2(C)CN(S(C)(=O)=O)CC(=O)N2c2cccc(C)c2C)cc1 (configuration not stated)
4,1250 s,COc1ccc2c(c1)-c1nc(NC(=O)c3ccc(Br)cc3)sc1CC2
5,1270 s,COc1ccc(C2Cn3nnc(-c4nc(-c5ccc(C)c(C)c5)no4)c3CO2)cc1 (configuration not stated)
6,824 s,O=C(CN1CCN(Cc2ccccc2)C1=O)N1CCN(c2ccccc2F)CC1
7,851 s,Cc1ccc(S(=O)(=O)N2CCc3c(c(-c4nnc(-c5ccc(F)cc5)o4)nn3C)C2)cc1C
8,639 s,Cc1sc2ccn(CC(C)C)c(=O)c2c1C(=O)NCCN1CCCCC1
9,914 s,CSc1ccc(-c2nc3cnccn3c2NC2CCCC2)cc1
10,1110 s,COc1ccccc1-c1noc(Cn2ncn3nc(-c4ccc(Br)cc4)cc3c2=O)n1
11,1320 s,CCCCCOC(=O)CSc1nnc(-c2ccc(Cl)cc2Cl)o1
12,1040 s,CCC(=O)n1nc(C)c(S(=O)(=O)N2CCCCC2)c1C
13,580 s,O=C(Cn1nc(C(=O)N2CCCC2)c2ccccc21)NCc1cccnc1
14,1050 s,CCN(C(=O)CN1C(=O)CCCc2cc(S(=O)(=O)N3CCC(C)CC3)ccc21)c1ccccc1
15,704 s,COc1ncccc1CNC(=O)c1cccn1C
16,606 s,Cc1ccc(CNC(=O)C2(C)Cn3nc(C(=O)NCCN4CCCCC4)cc3C(=O)N2C)cc1 (configuration not stated)
17,1160 s,COc1cccc(S(=O)(=O)N2CCC3(CC2)C(OC)CN3c2cccc(F)c2)c1 (configuration not stated)
18,747 s,O=C(Nc1ccc2c(c1)OCO2)C1CCCN(c2nnc3ccc(Cl)cn23)C1 (configuration not stated)
19,850 s,CCn1ccc2sc(C)c(C(=O)NCc3cccc(C)c3)c2c1=O
20,795 s,Cn1c(=O)c2c(nc([N+](=O)[O-])n2Cc2ccc(F)cc2)n(C)c1=O
21,646 s,CC(=O)N1CCN(c2ccc(NC(=O)c3ccccc3Br)cc2)CC1
22,1100 s,Cc1ccc(-c2ccc3nn(Cc4nc(-c5ccc(Br)cc5)no4)c(=O)n3n2)cc1

row,RP-LC retention time,Structure (SMILES)
1,688 s,COc1cccc(CNC(=O)N2CCC(N3CCN(Cc4cccc(F)c4)C(=O)C3=O)CC2)c1
2,820 s,O=C(NCc1ccco1)c1ccc(Cn2nc(N3CCN(c4ccc(F)cc4)CC3)ccc2=O)o1
3,611 s,CCN1CCN(C(=O)c2cc3n(n2)CC(C)(C(=O)NC2CCCCCC2)N(C)C3=O)CC1 (configuration not stated)
4,904 s,CN(C)S(=O)(=O)c1ccc(CNC(=O)c2cccc(-c3nnc(-c4ccccc4)o3)c2)s1
5,752 s,O=C(CCc1nc2cccnc2n1Cc1cccs1)NCCc1c[nH]c2ccccc12
6,621 s,CCN1CCN(C(=O)C2CCN(S(=O)(=O)c3c(C)nn(-c4ccccc4)c3C)CC2)CC1
7,615 s,O=C(O)c1cc(N2CCN(CC(=O)N3CCCCCC3)CC2)ccc1NC(=O)C1CC1
8,627 s,Cn1cc(-c2nc(-c3cccc(Cl)c3)no2)c(=O)c2cc(F)c(N3CCCC3)cc21
9,909 s,O=C(NCCC1CCN(S(=O)(=O)c2ccc(F)cc2)CC1)Nc1ccc(F)cc1
10,678 s,Cc1csc(-c2ccc(CNC(=O)C3CCOC3)cc2)n1 (configuration not stated)
11,1090 s,CCc1cc(C(=O)Nc2ccccc2OC)nc2ccnn12
12,760 s,COc1c(NC=O)c2c(c([N+](=O)[O-])c1OC)C(=O)OC2
13,598 s,O=C(N[C@@H]1CN(Cc2ccc(Cl)cc2F)CC[C@@H]1CO)C1CC1
14,679 s,O=S(=O)(c1cccs1)N1CC(c2nc(-c3ccncc3)no2)C1
15,788 s,O=C(Nc1ccc2c(c1)OCO2)N1CCC(N2CCN(Cc3ccc(F)cc3)C2=O)CC1
16,563 s,CCOCC(=O)N1C[C@@H]2CCCN3CCC[C@@H]([C@H]23)[C@H]1CCCC(=O)N1CCOCC1
17,639 s,CC(=O)N1c2ccc(S(=O)(=O)N3CCCCC3)cc2CC1C(=O)NCCN1CCCCCC1 (configuration not stated)
18,712 s,Cc1ccccc1Cn1cc(-c2ccncc2)cc1C(=O)NCC(C)C
19,927 s,CC(C)n1c(=O)n(CC(=O)NC2CCCc3ccccc32)c2cc(S(=O)(=O)N3CCCC3)ccc21 (configuration not stated)
20,747 s,CCn1ccc2sc(C)c(C(=O)NCC(C)C)c2c1=O
21,1170 s,Cc1ccc(-n2cc(C(=O)OCc3ccco3)c3ccccc3c2=O)cc1
22,961 s,Cc1cc(C(=O)Nc2ccc(C)c(C)c2)n(-c2ccccc2)n1

row,RP-LC retention time,Structure (SMILES)
1,680 s,Cc1cc(C)cc(NC(=O)N2CCCC(Cn3cnc4cccnc43)C2)c1 (configuration not stated)
2,577 s,OCC1CN(c2ncccn2)CC12CCN(Cc1cc(Cl)ccc1F)CC2 (configuration not stated)
3,558 s,Cc1sc2cc(C(=O)N3CCN(c4ccccn4)CC3)[nH]c2c1CN1CCCC1
4,631 s,COc1cc(C(=O)N2CCC(C(=O)NCCc3cscn3)CC2)cc(OC)c1OC
5,592 s,CC1CCCC(C)N1CCCNC(=O)C1CCCN(c2ncnc3c2nc2n3CCCCC2)C1 (configuration not stated)
6,618 s,COc1ccc(N2CCN(c3nc(C(=O)NCCN(C)C)cs3)CC2)cc1
7,1050 s,Cc1nn(CC(=O)N2CCc3ccccc32)c(=O)c2nn(-c3ccccc3)c(C)c12
8,1020 s,O=C(Cn1cnc2c(-c3ccc(F)cc3)csc2c1=O)N1CCCc2ccccc21
9,692 s,CCOc1ccc(CNC(=O)C2CCN(S(=O)(=O)c3cn(C)cn3)CC2)cc1
10,892 s,CC1(C(=O)NC2CCCC2)CN(S(=O)(=O)c2ccccc2)CC(=O)N1c1ccc(F)cc1 (configuration not stated)
11,1170 s,CC(C)CC(=O)Nc1ccc(-c2nc(-c3ccc(F)cc3)no2)cc1
12,680 s,COc1cc(OC)cc(-c2nc(-c3ccc4c(c3)ncn4CCN3CCCCC3)no2)c1
13,1330 s,CC(C)(C)c1csc(-c2csc(S(=O)(=O)Nc3cccc(Cl)c3F)c2)n1
14,575 s,CN1CCN(CCCNc2nnc(-c3nc(-c4ccc(F)cc4)no3)c3ccccc23)CC1
15,816 s,Cc1ccc(Nc2c(-c3ccc(N(C)C)cc3)nc3cccc(C)n23)cc1
16,726 s,COc1ccc(NC(=O)c2ccc(-n3cnc(NC(=O)C4CC4)c3)cc2)c(OC)c1
17,1020 s,CCN(CC)S(=O)(=O)c1ccc(Cl)c(-c2nnc(-c3ccccc3OC)o2)c1
18,577 s,COc1ccc(NC(=O)N2CCN(c3cnn4c(C)nnc4c3)CC2)c(OC)c1
19,1090 s,CCCN1C(=O)c2cc(S(=O)(=O)Nc3ccccc3Cl)ccc2Oc2cccnc21
20,733 s,O=C(Cn1nc(C(=O)N2CCOCC2)c2ccccc21)Nc1ccc(F)cc1
21,1100 s,NC(N)=NCCC[C@H](NC(=O)[C@@H]1CCCN1C(=O)[C@H](N)Cc1ccccc1)C(=O)CCl
22,680 s,O=C(CSc1ccc(N2CCCC(C(=O)NC3CC3)C2)nn1)Nc1ccc(F)c(F)c1 (configuration not stated)

row,RP-LC retention time,Structure (SMILES)
1,757 s,CCc1ccc(-c2cc3c(=O)n(Cc4noc(CN5CCC(C)CC5)n4)ccn3n2)cc1
2,766 s,Cn1cc(-c2nnc(SCC(=O)N3CCc4ccccc43)n2C)c(-c2ccccc2)n1
3,824 s,Cc1ccc(NC(=O)C2CCCN(c3ncnc4c3nc3n4CCCCC3)C2)c(C)c1 (configuration not stated)
4,680 s,COc1ccc(CNC(=O)c2ccc3[nH]c4c(c3c2)CN(C(C)=O)CC4)c(OC)c1
5,721 s,CN1C(=O)CCCCC1C(=O)N1CCc2ccccc21 (configuration not stated)
6,869 s,Cc1ccccc1NC(=O)CSc1ccc(-n2nccc2C)nn1
7,968 s,CC(C)Cc1ccc(C(C)C(=O)N2CC(=O)Nc3ccccc32)cc1 (configuration not stated)
8,903 s,CCC1=NS(=O)(=O)c2cccnc2N1c1ccc(Br)cc1
9,1020 s,COc1ccc(OC)c(NC(=O)c2[nH]c(C)c(S(=O)(=O)N3CCCCC3)c2C)c1
10,733 s,Cc1ccc2c(=O)c(C(=O)N3CCCC3)cn(CC(=O)Nc3ccc(C)c(C)c3)c2n1
11,806 s,Cc1ccc(S(=O)(=O)N2CCC3(CC2)CC(C)(O)CCO3)cc1 (configuration not stated)
12,932 s,Cc1cccc(N2CCN(C(=O)c3cn(-c4cc(N5CCSCC5)ncn4)cn3)CC2)c1
13,1040 s,Cn1cccc1CN(C(=O)COc1ccc(Cl)cc1Cl)C1CC1
14,759 s,O=S(=O)(Nc1ccc(Cn2cncn2)cc1)c1ccc2c(c1)CCC2
15,811 s,O=C(Cc1ccccc1Br)NC1CCCN(c2cc(-c3ccccc3)[nH]n2)C1 (configuration not stated)
16,1130 s,CC12CCC(C1)C(C)(C)C2OC(=O)c1ccccc1C(=O)O (configuration not stated)
17,1080 s,Cc1ccc(-c2noc(Cn3nc(-c4ccccc4)ccc3=O)n2)cc1
18,702 s,CC(=O)c1cccc(NC(=O)C2Oc3ccccc3NC2=O)c1 (configuration not stated)
19,729 s,N#CC1(C(=O)NCc2nc(-c3ccccc3)no2)CC1

row,Structure (SMILES),RP-LC retention time
1,O=C(NCc1ccc2c(c1)OCO2)c1c(O)c2cccnc2n(Cc2ccccc2)c1=O,1290 s
2,N#Cc1ccccc1-c1cc(-c2ccccn2)cn(-c2ccccc2)c1=O,941 s
